These results are taken from patent US4052515A, “Method of treating acne with alcohol” (priority 1976, dated 1977).

For assay [1], the system named is Corynebacterium acne lysate supernatant lypolytic activity. Put plainly: Lypolytic activity of C. acne lysate supernatant, tributyrin turbidity. The assay is classed as biochemical. Particulars: for Percent Inhibition C. Acne: tributyrin 0.05% substrate, initial rates of turbidity change; for Effect on inhibiting the hydrolysis of the tributyrin: summary in words for C. acne and comedo homogenate. The procedure: Cells of a pure culture of Corynebacterium acne are collected, lysed in 0.05M phosphate buffer and centrifuged. The resultant supernatant is also used to measure lypolytic activity.
(§1) Tributyrin (0.05%) is dispersed in the phosphate buffered solutions by sonication, the alcohol is added, and then an aliquot of the enzyme solution added. The decrease in turbidity is measured spectrophotometrically. Inhibitory activity is determined by comparing initial rates of change.

Assay [2] deals with Comedo homogenate lypolytic activity. The experiment in a line: Lypolytic activity of comedo homogenate supernatant, tributyrin turbidity. It counts as biochemical. To be noted: tributyrin 0.05% substrate. The procedure:
Comedones are collected from the face of subjects with varying degrees of acne and homogenized in 0.05M phosphate buffer, pH 8.1. The mixture is centrifuged and the supernatant is used to measure lypolytic activity.
as §1

The test system of assay [3] is Pityrosporum ovale whole cell lipase activity. Put plainly: Whole cell lipase activity, pH stat. It counts as cell-based. Particulars: for Percent Inhibition Tributyrin / Percent Inhibition Triolein: P. Ovale, alcohol 0.5mMoles; for Percent Inhibition Tributyrin: tributyrin substrate; for Percent Inhibition Triolein: triolein substrate; for Inhibitory activity against different types and strains of skin microorganisms and substrates: summary in words over all strains and both substrates. On the procedure: Cells from three strains of C.Acnes and one strain of Pityrosporum ovale are collected and whole cells used to measure lipase activity. Tributyrin and triolein are used as substrates by dispersing them in a histidine-buffered system by sonication and measuring the acid changes with a pH stat. Alcohols are added to the substrate at a level of 0.5mMoles.

Assay [4] has as its system P. Ovale cells and artificial sebum lipid. Put plainly: Irritation by artificial sebum plus P. Ovale cells on guinea pig back. The assay is classed as in vivo, guinea pigs. To be noted: for Average Irritation Grade: graded after 5 days, scale 0-4, 4 most severe, 0% control 2.0; for Reduction of irritation produced by P. Ovale cells and artificial sebum lipid: summary in words. On the procedure:
(§2) A lipid mixture resembling human sebum in composition, but lacking free fatty acids, is applied to the back of guinea pigs along with an inoculum of P. Ovale cells. Alcohol is added to the artificial sebum lipid at concentrations of 1 and 5%. Irritation is graded after 5 days on a scale of 0-4, 4 being most severe.

A short description of assay [5]: Topical application of compositions to skin affected by acne. It counts as in vivo. To be noted: 3 to 10 milligrams composition per square centimeter of skin, about 3 weeks. An excerpt:
When treating acne it is preferred that a regimen involving multiple applications of the composition over a period of days or weeks be employed. The amount of the composition applied to the affected areas which constitutes an effective amount will vary depending on the particular person and degree of acne. It is preferred that the composition be applied to the affected areas at a rate of 3 milligrams of composition per square centimeter to 10 milligrams composition per square centimeter of treated tissue.
The above compositions show an anti-acne effect when topically applied to skin areas so affected at a rate of between 3 to 10 milligrams composition per square centimeter of skin over a period of about 3 weeks.

The subject of assay [6] is P. Ovale cells and artificial sebum lipid. Put plainly: Parallel experiment: irritation and free fatty acid in artificial sebum after 5 days. The assay is classed as in vivo, guinea pigs. Particulars: for Irritation Grade: after 5 days, control 3; for % Free Fatty Acids: lipids extracted after 5 days, control 12.5. The procedure: as §2
In a parallel experiment, 1-octanol is mixed in the artificial sebum in varying ratios. After 5 days the lipids are extracted and the quantity of free fatty acid determined.

The conditions of assay [7]: Stoler disclosure; cited from earlier work.
Where [8] appears, read: 1.0% alcohol in artificial sebum.
The mark [9] stands for this setting: 5.0% alcohol in artificial sebum.

Each structure is given as a SMILES string.

As to `CCCCO` [1-butanol, reference compound], in assay [1] (0.1% alcohol), the “Percent Inhibition C. Acne” value is on record as 0%. Moreover, the “Effect on inhibiting the hydrolysis of the tributyrin” value in assay [1] is given as “no measurable effect”. Further, the “Percent Inhibition Comedo Homogenate” value in assay [2] (0.1% alcohol) is given as 0%.
As for `CCCCCCCCCCO` [1-decanol], in assay [3], the “Percent Inhibition Tributyrin” value was 63%; the “Percent Inhibition Triolein” value is 24%; the “Inhibitory activity against different types and strains of skin microorganisms and substrates” value is given as “broad inhibitory activity”. Moreover, the “Average Irritation Grade” value in assay [4] (setting [8]) was 1.3. In addition, the “Average Irritation Grade” value in assay [4] (setting [9]) turned out to be 0.6. Further, in assay [4], the “Reduction of irritation produced by P. Ovale cells and artificial sebum lipid” value was “able to reduce the irritation”. Also, in assay [5], the Anti-acne effect entry is given as “substantially the same results”.
For `CCCCCCCCCCCCO` [1-dodecanol], the “Average Irritation Grade” value worked out at 1.3 in assay [4] (setting [8]) and 1.0 in assay [4] (setting [9]). Besides, in assay [4], the “Reduction of irritation produced by P. Ovale cells and artificial sebum lipid” value is “able to reduce the irritation”. Besides, the Anti-acne effect result in assay [5] was “substantially the same results”.
For `CCCCCCCCO` [1-octanol], the “Percent Inhibition C. Acne” value in assay [1] (0.03% alcohol) stood at 63%; in assay [1] (0.1% alcohol), 100%. For the same compound, the “Effect on inhibiting the hydrolysis of the tributyrin” value in assay [1] was “positive effect”. Further, the “Percent Inhibition Comedo Homogenate” value in assay [2] (0.03% alcohol) amounted to 20%; in assay [2] (0.1% alcohol) it was 27%. The “Percent Inhibition Tributyrin” value in assay [3] amounted to 60%. In assay [3], the “Percent Inhibition Triolein” value worked out at 12%. In assay [3], the “Inhibitory activity against different types and strains of skin microorganisms and substrates” value is listed as “broad inhibitory activity”. The “Average Irritation Grade” value in assay [4] (setting [8]) was determined as 0; in assay [4] (setting [9]), 0.6. In addition, the “Reduction of irritation produced by P. Ovale cells and artificial sebum lipid” value in assay [4] is “able to reduce the irritation”. For the same compound, the “Irritation Grade” value turned out to be 2 in assay [6] (alcohol concentration 0.5), 2 in assay [6] (alcohol concentration 1.0) and 0.5 in assay [6] (alcohol concentration 5.0). Further, the figures for the “% Free Fatty Acids” value in assay [6] (alcohol concentration 0.5), in assay [6] (alcohol concentration 1.0) and in assay [6] (alcohol concentration 5.0) were 2.5%, 1.7% and 2.5%, respectively.
Take `CCCCCCC(C)O` (centres unmarked) [2-octanol]: the Anti-acne effect result in assay [5] was “substantially the same results”.
Same read-out and setting: the same measure for `CCCCCCC=CCCO` [3-decen-1-ol]: “substantially the same results”; for `CCC=CCCO` [3-hexen-1-ol]: “substantially the same results”; for `CCCO` [Propanol]: “substantially the same results”.
Take `OCc1ccccc1` [benzyl alcohol]: in assay [7], the Anti-acne agent result is “an effective anti-acne agent” and the “Inhibition of the formation of free fatty acids” value is recorded as “effective in inhibiting the formation of free fatty acids”.
For `CC(C)O` [isopropanol], the Anti-acne effect result in assay [5] was “substantially the same results”.
